“And” between values parts separate entries of the source, which are not always exact repeats. Equal entries are not always repeated. Where two headings read alike, the source gives them in different places.
Columns and labels:
Assay in all cases: Greenhouse test, pre-emergence treatment
[1] = test system: KCHSC; type: in vivo, Kochia scoparia; conditions: Bassia scoparia, 480 h, pre-emergence
Method in brief: (§1)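 Seeds were sown in loamy sand with about 3.0% humus, and compounds in water were sprayed immediately after sowing, alone or as combinations formulated as 10% emulsion concentrates. Plants grew under hoods until rooted, at 10-25 °C or 20-35 °C by species, for 2 to 4 weeks. Damage was scored 0-100 (100 = no emergence or complete destruction), and Colby expected values were E=X+Y−(X·Y/100).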

[2] = test system: POLCO; type: in vivo, Polygonum convolvulus; conditions: Fallopia convolvulus, 480 h, pre-emergence; for inhibition at 12.5 g/ha: use rate 12.5 g ai/ha
Method in brief: as §1

[3] = test system: LOLMU; type: in vivo, Lolium multiflorum; conditions: Lolium multiflorum, pre-emergence, 480 h; for inhibition at 12.5 g/ha: use rate 12.5 g ai/ha; for inhibition at 25 g/ha: use rate 25 g ai/ha
Method in brief: as §1

[4] = test system: ABUTH; type: in vivo, Abutilon theophrasti; conditions: Abutilon theophrasti, 480 h, 24 g ai/ha, read-out: observed % activity 20 DAT
Method in brief: as §1

[5] = test system: EPHHL; type: in vivo, Euphorbia heterophylla; conditions: Euphorbia heterophylla, pre-emergence, 480 h, pre-emergence, read-out: observed % activity 20 DAT
Method in brief: as §1

[6] = test system: GALAP; type: in vivo, Galium aparine; conditions: Galium aparine, 480 h, pre-emergence
Method in brief: as §1

[7] = test system: BRADC; type: in vivo, Brachiaria decumbens; conditions: pre-emergence
Method in brief: as §1

[8] = test system: SETFA; type: in vivo, Setaria faberi; conditions: Setaria faberi, 480 h, SETFA, 20 DAT, read-out: observed % activity 20 DAT
Method in brief: as §1

[9] = test system: COMBE; type: in vivo, Commelina benghalensis; conditions: Commelina benghalensis, 480 h; pre-emergence, 12 g ai/ha; read-out: observed % activity 20 DAT
Method in brief: as §1

[10] = test system: SORHA; type: in vivo, Sorghum halepense; conditions: Sorghum halepense, pre-emergence, 480 h, 20 DAT, read-out: observed % activity
[11] = test system: AVEFA; type: in vivo, Avena fatua; conditions: pre-emergence
Method in brief: as §1

[12] = test system: PHACA; type: in vivo, Phalaris canariensis; conditions: Phalaris canariensis, pre-emergence, 480 h; for inhibition at 12.5 g/ha: use rate 12.5 g ai/ha; for inhibition at 25 g/ha: use rate 25 g ai/ha
Method in brief: as §1

[13] = test system: GERPU; type: in vivo, Geranium pusillum; conditions: Geranium pusillum, pre-emergence, 480 h, pre-emergence, read-out: observed % activity 20 DAT
Method in brief: as §1

[14] = test system: ECHCG; type: in vivo, Echinocloa crus-galli; conditions: Echinochloa crus-galli, 480 h, read-out: observed % activity 20 DAT; for inhibition at 12.5 g/ha: use rate 12.5 g ai/ha
Method in brief: as §1

[15] = test system: ALOMY; type: in vivo, Alopecurus myosuroides; conditions: Alopecurus myosuroides, pre-emergence, 480 h; for inhibition at 12.5 g/ha: use rate 12.5 g ai/ha; for inhibition at 25 g/ha: use rate 25 g ai/ha
Method in brief: as §1

[16] = 12 g ai/ha, read-out: observed % activity 20 DAT
[17] = 24 g ai/ha, read-out: observed % activity 20 DAT
[18] = 6 g ai/ha, 20 DAT, read-out: observed % activity
[19] = 12 g ai/ha, 20 DAT, read-out: observed % activity
[20] = read-out: observed % activity 20 DAT
[21] = 24 g ai/ha, 20 DAT, read-out: observed % activity
[22] = 6 g ai/ha, read-out: observed % activity 20 DAT
[23] = 8 g ai/ha, read-out: observed % activity 20 DAT
[24] = LOLMU, 20 DAT, read-out: observed % activity 20 DAT
[25] = PHACA, 20 DAT, read-out: observed % activity 20 DAT
[26] = ALOMY, 20 DAT, read-out: observed % activity 20 DAT

Cn1nc(C(F)(F)F)c(CS(=O)(=O)C2=NOC(C)(C)C2)c1OC(F)F [Pyroxasulfone, pyroxasulfone]
10%: pest or weed control at 12 g/ha ([13]; 12 g ai/ha)
60%: inhibition at 24 g/ha ([11]; Avena fatua, 480 h, 24 g ai/ha, 20 DAT, read-out: observed % activity)
85%: inhibition at 12 g/ha [1, 19]
75%: inhibition at 12 g/ha [6, 19] | inhibition at 24 g/ha [6, 21] | inhibition at 6 g/ha ([10]; 6 g ai/ha) | pest or weed control at 12 g/ha [12, 16] | pest or weed control at 16 g/ha ([12]; 16 g ai/ha, read-out: observed % activity 20 DAT)
70%: pest or weed control at 6 g/ha [3, 22] | pest or weed control at 24 g/ha ([5]; 24 g ai/ha) | observed % activity 20 DAT ([11]; 24 g ai/ha) | pest or weed control at 6 g/ha [12, 22] | pest or weed control at 8 g/ha [12, 23] | pest or weed control at 8 g/ha ([14]; 8 g ai/ha)
90%: pest or weed control at 12 g/ha [9] | inhibition at 25 g/ha ([14]; ECHCG, use rate 25 g ai/ha, 20 DAT)
80%: pest or weed control at 24 g/ha [1, 17] | pest or weed control at 12 g/ha [3, 16] | inhibition at 12.5 g/ha ([8]; use rate 12.5 g ai/ha) | inhibition at 6 g/ha [12, 18] | pest or weed control at 6 g/ha [15, 22]
55%: pest or weed control at 16 g/ha ([7]; Urochloa decumbens, 480 h, 16 g ai/ha, read-out: observed % activity 20 DAT) | inhibition at 25 g/ha [12, 25] | inhibition at 25 g/ha [12, 20]
53%: inhibition at 6 g/ha ([7]; Urochloa decumbens, 480 h, 6 g ai/ha, 20 DAT, read-out: observed % activity)
40%: inhibition at 25 g/ha [3, 24] | inhibition at 25 g/ha [3, 20] | pest or weed control at 24 g/ha [4] | pest or weed control at 12 g/ha ([5]; 12 g ai/ha) | observed % activity 20 DAT ([11]; 8 g ai/ha) | inhibition at 12.5 g/ha [12, 25] | inhibition at 12.5 g/ha [12, 20]
50%: pest or weed control at 12 g/ha [1, 16] | pest or weed control at 8 g/ha [3, 23] | pest or weed control at 24 g/ha [6, 17] | inhibition at 12.5 g/ha ([14]; ECHCG, 20 DAT) | inhibition at 12.5 g/ha [14]
20%: pest or weed control at 12 g/ha [2, 16] | pest or weed control at 24 g/ha [2, 17] | pest or weed control at 24 g/ha ([13]; 24 g ai/ha) | inhibition at 12.5 g/ha [15, 26] | inhibition at 25 g/ha [15, 26] | inhibition at 12.5 g/ha [15, 20] | inhibition at 25 g/ha [15, 20]
98%: inhibition at 24 g/ha [3, 21] | inhibition at 24 g/ha ([10]; 24 g ai/ha) | inhibition at 24 g/ha [15, 21] | pest or weed control at 24 g/ha [15, 17]
20% and 30%: observed % activity 20 DAT ([11]; 12 g ai/ha)
35%: inhibition at 6 g/ha [3, 18] | pest or weed control at 12 g/ha [6, 16] | pest or weed control at 6 g/ha ([7]; Urochloa decumbens, 480 h, 6 g ai/ha, read-out: observed % activity 20 DAT)
95%: pest or weed control at 24 g/ha [3, 17] | pest or weed control at 24 g/ha ([7]; Urochloa decumbens, 480 h, 24 g ai/ha, read-out: observed % activity 20 DAT) | inhibition at 25 g/ha ([8]; use rate 25 g ai/ha) | inhibition at 24 g/ha [12, 21] | pest or weed control at 24 g/ha [12, 17] | inhibition at 12 g/ha [15, 19] | pest or weed control at 12 g/ha [15, 16]
0%: inhibition at 6 g/ha [1, 18] | inhibition at 25 g/ha ([1]; use rate 25 g ai/ha, read-out: observed % activity 20 DAT) | inhibition at 12 g/ha [2, 19] | inhibition at 12.5 g/ha ([2]; POLCO, 20 DAT, read-out: observed % activity 20 DAT) | inhibition at 12.5 g/ha [2, 20] | inhibition at 6 g/ha ([11]; Avena fatua, 480 h, 6 g ai/ha, 20 DAT, read-out: observed % activity)
30%: inhibition at 12.5 g/ha [3, 24] | inhibition at 12.5 g/ha [3, 20] | pest or weed control at 12 g/ha ([7]; Urochloa decumbens, 480 h, 12 g ai/ha, read-out: observed % activity 20 DAT) | observed % activity 20 DAT ([7]; 12 g ai/ha)
60% and 35%: observed % activity 20 DAT ([11]; 16 g ai/ha)

Source: patent US9999222B2, “Herbicidal combination comprising azines” (BASF SE, priority 2014, dated 2018)
